The values below come from patent US4318916A, “Antibiotic PS-5 and derivatives having β-lactamase inhibitory activity and production thereof” (Sanraku-Ocean Co., Ltd., priority 1977, dated 1982).

SMILES strings stand for the structures. Converted amounts (≈) assume the structure as drawn. Read-outs that look alike come from different tables or passages of the source.

Type in all cases: cell-based
In experiment [1] the test system is Bacillus subtilis ATCC 6633. Description: MIC by broth dilution (Table 8). The following applies: ATCC6633, 20 h; Bacillus subtilis ATCC 6633; read-out: Minimum inhibitory concentration. As to the method: (§1) The MIC values of antibiotic PS-5 sodium salt were determined on various pathogenic microorganisms including resistant strains by the broth dilution method utilizing the BRAIN HEART INFUSION BROTH `Eiken` (EIKEN CHEMICAL CO., LTD.).
(§2) The antibiotic PS-5 sodium salt was dissolved in BRAIN HEART INFUSION BROTH `Eiken` (EIKEN CHEMICAL CO., LTD.) (pH 7.0) at concentration in the range of 5-50 μg/ml, from which appropriate dilution series were made in the same liquid medium. The microorganisms listed in Table 8 were cultivated for 18 hours in BRAIN HEART INFUSION BROTH `Eiken` at 28° C. and inoculated into the said dilution series of antibiotic PS-5 at a final inoculum size of 1×10^5 cells/ml. The cultures were allowed to stand at 35° C. for 20 hours, and then the growth of the microorganisms was read at each dilution of antibiotic PS-5. The minimum inhibitory concentration (MIC) represents the smallest concentration of the antibiotic PS-5 (sodium salt) where no propagation of the relevant microorganism was visually confirmed. As the controls, two known beta-lactam antibiotics, cephaloridine and cefoxitin were dissolved in brain heart infustion broth at pH 7.0 at concentrations ranging from 1 μg/ml to 100 μ g/ml and then diluted to make several dilution series in the above mentioned liquid medium. These samples were treated as described above for the MIC determinations.
Background: Broth dilution looks for growth in wells or tubes with falling amounts of substance.

Experiment [2] relates to Diplococcus pneumoniae Type III. Description: MIC by broth dilution (Table 8). The conditions noted are these: Streptococcus pneumoniae, 20 h; Diplococcus pneumoniae Type III; 10% horse blood supplemented into the medium; read-out: Minimum inhibitory concentration. As to the method:
as §1, §2

For experiment [3], the system named is Staphylococcus aureus Bx-1633. Description: MIC by broth dilution (Table 8). The conditions noted are these: BX1633, 20 h; Staphylococcus aureus Bx-1633; PS-5 as sodium salt; read-out: Minimum inhibitory concentration. As to the method: as §1, §2
Experiment [4] deals with Staphylococcus aureus EDA 209 P. Description: MIC by broth dilution (Table 8). The following applies: EDA209P, 20 h; Staphylococcus aureus EDA 209 P; PS-5 as sodium salt; read-out: Minimum inhibitory concentration. As for the experimental part:
as §1, §2

The subject of experiment [5] is Staphylococcus aureus Smith. Description: MIC by broth dilution (Table 8). The following applies: 20 h; Staphylococcus aureus Smith; PS-5 as sodium salt; read-out: Minimum inhibitory concentration. As for the experimental part: as §1, §2
In experiment [6] the test system is Streptococcus pyogenes NY-5. Description: MIC by broth dilution (Table 8). The conditions noted are these: NY5, 20 h; Streptococcus pyogenes NY-5; 10% horse blood supplemented into the medium; read-out: Minimum inhibitory concentration. As for the experimental part:
as §1, §2

In experiment [7] the test system is Alcaligenes faecalis B-326. Description: MIC by broth dilution (Table 8). The conditions noted are these: B326, 20 h; Alcaligenes faecalis B-326; read-out: Minimum inhibitory concentration. As to the method: as §1
as §2, with “determinations. In addition to the MIC values of antibiotic PS-5, those of cephaloridine and cefoxitin are included for reference.” for “determinations.”

Experiment [8] concerns Citrobacter freundii E-9. Description: MIC by broth dilution (Table 8). The conditions noted are these: E9, 20 h; Citrobacter freundii E-9; betalactamase producer; read-out: Minimum inhibitory concentration. As to the method:
as §1
as §2, with “determinations. In addition to the MIC values of antibiotic PS-5, those of cephaloridine and cefoxitin are included for reference.” for “determinations.”

In experiment [9] the test system is Enterobacter aerogenes E-19. Description: MIC by broth dilution (Table 8). The conditions noted are these: Klebsiella aerogenes, E19, 20 h, betalactamase producer, read-out: Minimum inhibitory concentration. As for the experimental part: as §1
as §2, with “determinations. In addition to the MIC values of antibiotic PS-5, those of cephaloridine and cefoxitin are included for reference.” for “determinations.”

The subject of experiment [10] is Enterobacter cloacae E-16. Description: MIC by broth dilution (Table 8). The conditions noted are these: E16, 20 h, betalactamase producer, read-out: Minimum inhibitory concentration. As for the experimental part: as §1
as §2, with “determinations. In addition to the MIC values of antibiotic PS-5, those of cephaloridine and cefoxitin are included for reference.” for “determinations.”

Experiment [11] relates to Enterobacter sp. E-8. Description: MIC by broth dilution (Table 8). The conditions noted are these: SP.E8, 20 h; Enterobacter sp. E-8; betalactamase producer; read-out: Minimum inhibitory concentration. As to the method: as §1
as §2, with “determinations. In addition to the MIC values of antibiotic PS-5, those of cephaloridine and cefoxitin are included for reference.” for “determinations.”

Experiment [12] relates to Escherichia coli K 12. The experiment can be described thus: MIC by broth dilution (Table 8). The conditions noted are these: K12, 20 h; Escherichia coli K 12; read-out: Minimum inhibitory concentration. As for the experimental part:
as §1
as §2, with “determinations. In addition to the MIC values of antibiotic PS-5, those of cephaloridine and cefoxitin are included for reference.” for “determinations.”

Experiment [13] concerns Klebsiella pneumoniae K-2. The experiment can be described thus: MIC by broth dilution (Table 8). The following applies: K2, 20 h, betalactamase producer, read-out: Minimum inhibitory concentration. As for the experimental part:
as §1
as §2, with “determinations. In addition to the MIC values of antibiotic PS-5, those of cephaloridine and cefoxitin are included for reference.” for “determinations.”

The subject of experiment [14] is Proteus mirabilis P-6. Description: MIC by broth dilution (Table 8). The following applies: P6, 20 h, resistant to kanamycin, gentamicin and tobramycin, read-out: Minimum inhibitory concentration. As for the experimental part:
as §1
as §2, with “determinations. In addition to the MIC values of antibiotic PS-5, those of cephaloridine and cefoxitin are included for reference.” for “determinations.”

For experiment [15], the system named is Proteus rettgeri P-7. Description: MIC by broth dilution (Table 8). The conditions noted are these: Providencia rettgeri, P7, 20 h, resistant to gentamicin and tobramycin, read-out: Minimum inhibitory concentration. As to the method:
as §1
as §2, with “determinations. In addition to the MIC values of antibiotic PS-5, those of cephaloridine and cefoxitin are included for reference.” for “determinations.”

Experiment [16] deals with Proteus sp. P-22. Description: MIC by broth dilution (Table 8). The conditions noted are these: 20 h; Proteus sp. P-22; read-out: Minimum inhibitory concentration. As for the experimental part: as §1
as §2, with “determinations. In addition to the MIC values of antibiotic PS-5, those of cephaloridine and cefoxitin are included for reference.” for “determinations.”

For experiment [17], the system named is Proteus vulgaris P-5. The experiment can be described thus: MIC by broth dilution (Table 8). The conditions noted are these: P5, 20 h, betalactamase producer, read-out: Minimum inhibitory concentration. As for the experimental part: as §1
as §2, with “determinations. In addition to the MIC values of antibiotic PS-5, those of cephaloridine and cefoxitin are included for reference.” for “determinations.”

The subject of experiment [18] is Providencia sp. P-8. The experiment can be described thus: MIC by broth dilution (Table 8). The following applies: SP.P8, 20 h, resistant to kanamycin, gentamicin and tobramycin, read-out: Minimum inhibitory concentration. As to the method: as §1
as §2, with “determinations. In addition to the MIC values of antibiotic PS-5, those of cephaloridine and cefoxitin are included for reference.” for “determinations.”

The test system of experiment [19] is Serratia marcescens S-18. Description: MIC by broth dilution (Table 8). The following applies: S18, 20 h, betalactamase producer, read-out: Minimum inhibitory concentration. As to the method: as §1
as §2, with “determinations. In addition to the MIC values of antibiotic PS-5, those of cephaloridine and cefoxitin are included for reference.” for “determinations.”

For experiment [20], the system named is Staphylococcus aureus Russell. Description: MIC by broth dilution (Table 8). The following applies: 20 h; Staphylococcus aureus Russell; PS-5 as sodium salt; read-out: Minimum inhibitory concentration. As to the method: as §1
as §2, with “determinations. In addition to the MIC values of antibiotic PS-5, those of cephaloridine and cefoxitin are included for reference.” for “determinations.”

Experiment [21] relates to Proteus vulgaris P-5. The experiment can be described thus: Potentiation disc assay with cephaloridine (Table 10). The following applies: for Potentiation of the antimicrobial activity of cephaloridine: disc assay, Table 10; for Inhibition zone With CER: 50 μg/ml cephaloridine in agar; for zone of inhibition at 625 µg/mL / zone of inhibition at 2500 µg/mL / zone of inhibition at 10000 µg/mL: P5, 18 h, read-out: Inhibition zone Without CER. As for the experimental part:
(A) Ten milliliters of molten nutrient agar containing 50 μg/ml of penicillin G or cephaloridine, 0.8% of Kyokuto Nutrient Broth Powder and 1.0% of Difco Bacto-Agar (pH 7.0) were seeded with the beta-lactam-resistant, beta-lactamase-producing microorganisms indicated in Tables 9 and 10, and poured in a 9-cm Petri dish to provide the bio-assay agar plate. On this assay plate, 8-mm pulp discs containing 25 μl each of antibiotic PS-5 solutions at the indicated concentrations were placed and incubated at 35° C. for 18 hours before reading the inhibition zones. The control assay plate was similarly prepared without penicillin G nor cephaloridine. As reference antibiotics, penicillin G, ampicillin, oxacillin and cefazolin were disc-assayed under the same conditions.

[22] abbreviates: Proteus vulgaris P-5, reference antibiotic 625 μg/ml.
Setting [23] is: Proteus vulgaris P-5, reference antibiotic 2,500 μg/ml.
Setting [24] is: Proteus vulgaris P-5, reference antibiotic 10,000 μg/ml.

On to `CO[C@@]1(NC(=O)Cc2cccs2)C(=O)N2C(C(=O)O)=C(COC(N)=O)CS[C@@H]21` [Cefoxitin, cefoxitin], for which the MIC in experiment [1] was determined as 1.25 µg/mL (≈ 2.92 µM); in [2], 1.25 µg/mL (≈ 2.92 µM); in experiment [3], 1.25 µg/mL; in experiment [4], 1.25 µg/mL; in [5] it was 2.5 µg/mL; in [6] it was 0.63 µg/mL (≈ 1.47 µM). Also, the MIC was 1.56 µg/mL (≈ 3.65 µM) in [7]; greater than 100 µg/mL in experiment [8]; greater than 100 µg/mL in experiment [9]; greater than 100 µg/mL in [10]; 12.5 µg/mL (≈ 29.2 µM) in experiment [11]; 2.5 µg/mL (≈ 5.85 µM) in [12]. In addition, the MIC came out at 6.25 µg/mL (≈ 14.6 µM) in experiment [13]; 12.5 µg/mL (≈ 29.2 µM) in experiment [14]; 6.25 µg/mL (≈ 14.6 µM) in [15]; 12.5 µg/mL (≈ 29.2 µM) in experiment [16]; 12.5 µg/mL (≈ 29.2 µM) in experiment [17]; 25 µg/mL (≈ 58.5 µM) in [18]. Also, the values for the MIC in experiment [19] and in [20] were 50 µg/mL (≈ 117 µM) and 2.5 µg/mL, respectively.
As to `Cc1onc(-c2ccccc2)c1C(=O)N[C@@H]1C(=O)N2[C@@H]1SC(C)(C)[C@@H]2C(=O)O` [Oxacillin, oxacillin], the “Potentiation of the antimicrobial activity of cephaloridine” value (“Potentiation” below) in experiment [21] (Proteus vulgaris P-5) is given as “could not increase the antimicrobial activity of cephaloridine”. Besides, the “Inhibition zone With CER” value in experiment [21] (setting [22]) is on record as 0 mm. In addition, the “Inhibition zone With CER” value in experiment [21] (setting [23]) is reported as 0 mm. In addition, the “Inhibition zone With CER” value in experiment [21] (setting [24]) amounted to 0 mm. In addition, in experiment [21] (Proteus vulgaris), the zone of inhibition at 625 µg/mL was determined as 0 mm, the zone of inhibition at 2500 µg/mL was found to be 0 mm and the zone of inhibition at 10000 µg/mL turned out to be 0 mm.
As for `Cc1nnc(SCC2=C(C(=O)O)N3C(=O)[C@@H](NC(=O)Cn4cnnn4)[C@H]3SC2)s1` [Cefazolin, cefazolin], in [21] (setting [22]), the zone of inhibition at 625 µg/mL came to 0 mm and the “Inhibition zone With CER” value came out at 0 mm. Further, in [21] (setting [23]), the zone of inhibition at 2500 µg/mL came to 0 mm and the “Inhibition zone With CER” value came to 0 mm. Further, in experiment [21] (setting [24]), the zone of inhibition at 10000 µg/mL was found to be 14.6 mm and the “Inhibition zone With CER” value is 12.0 mm. The “Potentiation” value in experiment [21] (Proteus vulgaris P-5) was “could not increase the antimicrobial activity of cephaloridine”.
With `CC1(C)S[C@@H]2[C@H](NC(=O)Cc3ccccc3)C(=O)N2[C@H]1C(=O)O` [Penicillin G, penicillin G], in experiment [21] (Proteus vulgaris P-5), the “Potentiation” value is recorded as “could not increase the antimicrobial activity of cephaloridine”. Also, the “Inhibition zone With CER” value in experiment [21] (setting [22]) turned out to be 0 mm. The “Inhibition zone With CER” value in [21] (setting [23]) is 0 mm. The “Inhibition zone With CER” value in experiment [21] (setting [24]) is 14.5 mm. Also, in [21] (Proteus vulgaris), the zone of inhibition at 625 µg/mL worked out at 0 mm, the zone of inhibition at 2500 µg/mL stood at 0 mm and the zone of inhibition at 10000 µg/mL worked out at 14.9 mm.
